What was measured:
[1] = test system: H3K27me3 at promoters of Wnt and pluripotency genes; assay: ChIP-sequencing of H3K27me3 in MYC-CTNNB1 organoids; type: cell-based, mouse; details: WNTinib 1 μM, 24 hours
Description: Importantly, this was not seen in the MYC-Tp53 model organoids (FIG. 10C).

[2] = test system: MYC-CTNNB1 tumor organoids; assay: Drug toxicity (viability) assay in murine HCC tumor organoids; type: cell-based, mouse; details: screen in four tumor organoid models; 5 μM, viability after 3 days
Procedure: Liver tumors were minced and digested in sterile digestion media (PBS, 0.125 mg/mL collagenase from Clostridium histolyticum, 0.125 mg/mL dispase II, and 0.1 mg/mL DNaseI) for two hours at 37° C. Tumor dissociate was strained through a 70 μm strainer and washed with basal media (Advanced DMEM/F-12, 1% glutamine, 1% penicillin/streptomycin, 10 mM HEPES). Cells were counted, washed, resuspended at 50,000 cells per 50 μL Matrigel (Corning), and plated in 24 well plates. […]
For assays in organoid lines, 96 well plates were first coated with a 50:50 solution of basal media:Matrigel (35 μL/well), which polymerized for 15 minutes at 37° C. […] Viability was measured three days post drug administration with either luminescence from CellTiter-Glo or absorbance at 560 and 590 nm from resazurin. Viability data was analyzed by normalizing individual drug-treated well values to DMSO-treated wells. […]

[3] = test system: receptor tyrosine kinases including KIT and VEGFR1/2; assay: NanoBRET live cell target engagement, receptor tyrosine kinases; type: cell-based; details: relative to sorafenib and regorafenib

CNC(=O)c1cc(Oc2ccc(NC(=O)Nc3ccc(C(F)(F)C(F)(F)F)cc3)c(F)c2)ccn1 [WNTinib, 4-(3-fluoro-4-(3-(4-(perfluoroethyl)phenyl)ureido)phenoxy)-N-methylpicolinamide]
H3K27me3 at promoters of genes of Wnt and pluripotency pathways [1]: upregulated the tri-methylation of lysine 27 on histone H3 (H3K27me3)
activity in tumor organoid screen [2]: potent and selective activity
live cell target engagement IC50 on receptor tyrosine kinases [3]: retained a similar in vivo IC50

— patent US20230404985A1, “METHODS OF TREATING TUMORS AND CANCERS HAVING DYSREGULATED WNT SIGNALING PATHWAYS” (ICAHN SCHOOL OF MEDICINE AT MOUNT SINAI, priority 2020, published 2023)
